“Also recorded” adds a separate entry of the source. Like-named read-outs stand apart in the source and are kept apart here.
What was measured:
Format in all cases: cell-based, human
[1] = tested on: Cyclin D1; assay: Cyclin D1 gene expression in HT-29 cells, RT-PCR; conditions: for Cyclin D1 expression change with zinc supplement: HT-29, 1 μM compound plus ZnCl2; for Cyclin D1 gene expression, change: HT-29, 1 μM, in words
Experimental: Gene and protein expression of Cyclin D1 after treatment with compound 3 was determined by RT-PCR and Western blotting as shown in FIGS. 43A and 43B, respectively, as follows. HT-29 cells were treated with 1 μM compound 3 for indicated time. Total RNA was extracted and gene expression level was determined by RT-PCR. Cyclin D1 protein expression in HT-29 cell lysate was determined by SDS-PAGE followed by Western blotting.
To identify the cell cycle regulatory pathway involved in compound 3-mediated cell cycle arrest as shown in Example 23 and 41, particularly associated with G1/S phase, expression of the key cell cycle regulator of G1/S phase progression, Cyclin D1, was examined.
(§1) The ability of compounds of Formula I to modulate gene expression of MT1A (FIG. 55A), MTF-1 (FIG. 55B), Cyclin D1 (FIG. 55C) and KLF4 (FIG. 55D) was determined by RT-PCR. HT-29 cells were treated with 1 μM compound 3 or compound 7, 35 μM ZnCl2, compound 3 and ZnCl2 together, or compound 7 and ZnCl2 together for 8 to 16 hr. The respective gene expression was normalized with β-actin gene expression in the same sample. Fold change in gene expression was expressed relative to the respective gene level of DMSO control.
(§2) The effect of compound 3 and compound 64 on gene expression changes in MT1A (FIG. 57A), MTF-1 (FIG. 57B), Cyclin D1 (FIG. 57C) and KLF4 (FIG. 57D) in HT-29 cells was determined by RT-PCR. HT-29 cells were treated with 1 μM compound 3 or compound 64, 35 μM ZnCl2, compound 3 and ZnCl2 together, or compound 64 and ZnCl2 together for 8 to 16 hr. The respective gene expression was normalized with β-actin gene expression in the same sample. Fold change in gene expression was expressed relative to the respective gene level of DMSO control.

[2] = tested on: HCT-116 colon cancer cells; assay: XTT cell proliferation assay, HCT-116; conditions: read-out: IC50 (cell growth inhibition)
Experimental: (§3) Cell growth inhibition IC50 (μM) by compounds of Formula I was tested on various cancer cell types by XTT cell proliferation assay. The growth inhibitory effects of the compounds of Formula I as shown below for the melanoma cell line SK-MEL-2 were reproducible by Lorus Therapeutics Inc.

[3] = tested on: KLF4; assay: KLF4 gene expression by RT-PCR, HCT-116; conditions: HCT-116, relative to vehicle control as 1
Text: (§4) Gene expression levels of KLF4, induced by compounds of Formula I, were also examined on various cancer cell types by RT-PCR. Fold changes in KLF4 in compound-treated cells were expressed relative to KLF4 expression in vehicle control-treated cells of respective cell type as “1”. […] Additionally, xenografts of MDA-MB-435 implanted into mammary fat pads of female SCID mice have shown immunohistochemical staining consistent with melanocytic origin (Ellison G, Klinowska T, Westwood R F, Docter E, French T, Fox J C. (2002) Mol Pathol. 55(5): 294-299). The breast cancer cell line MDA-MB-435 may be expected to function differently than the other breast cancer cell lines.

[4] = tested on: MTF-1; assay: MTF-1 gene expression in HT-29 cells, RT-PCR; conditions: for MTF-1 expression change with zinc supplement: HT-29, 1 μM compound plus ZnCl2, 8 hr; for MTF-1 gene expression, change: HT-29, 1 μM, in words
Experimental: The gene expression of MTF-1 was examined by RT-PCR following treatment of HT-29 cells with 1 μM compound 3 for indicated time.
To assess the cellular response to zinc depletion, the gene expression of zinc-sensitive transcription factor MTF-1 was examined.
as §1, §2

[5] = tested on: KLF4; assay: KLF4 gene expression by RT-PCR, H-460; conditions: for KLF2, KLF4 and KLF6 gene expression: H-460, 2.5 μM; for KLF4 (gene fold increase): H-460, relative to vehicle control as 1
Text: as §4
Expressions of KLF2, 4 and 6 genes in H-460 cells, treated with vehicle control or 2.5 μM compound 3 or compound 7, were measured by RT-PCR. Gene expression was presented relative to respective gene expression in vehicle control-treated group as “1”.

[6] = tested on: KLF4; assay: KLF4 gene expression by RT-PCR, DU-145; conditions: DU-145, relative to vehicle control as 1
Text: as §4

[7] = tested on: MDA-MB-435 breast cancer cells; assay: XTT cell proliferation assay, MDA-MB-435; conditions: read-out: IC50 (cell growth inhibition)
Experimental: as §3

[8] = tested on: PC-3 prostate cancer cells; assay: XTT cell proliferation assay, PC-3; conditions: read-out: IC50 (cell growth inhibition)
Experimental: as §3

[9] = tested on: SK-MEL-2 melanoma cells; assay: XTT cell proliferation assay, SK-MEL-2; conditions: read-out: IC50 (cell growth inhibition)
Experimental: as §3

[10] = tested on: DU-145 prostate cancer cells; assay: XTT cell proliferation assay, DU-145; conditions: read-out: IC50 (cell growth inhibition)
Experimental: as §3

[11] = tested on: CCRF-CEM leukemia cells; assay: XTT cell proliferation assay, CCRF-CEM; conditions: read-out: IC50 (cell growth inhibition)
Experimental: as §3

[12] = tested on: KLF4; assay: KLF4 gene expression by RT-PCR, PC-3; conditions: PC-3, relative to vehicle control as 1
Text: as §4

[13] = tested on: KLF4; assay: KLF4 gene expression by RT-PCR, MDA-MB-435; conditions: MDA-MB-435, relative to vehicle control as 1
Text: as §4

[14] = tested on: KLF4; assay: KLF4 gene expression by RT-PCR, MDA-MB-231; conditions: MDA-MB-231, relative to vehicle control as 1
Text: as §4

[15] = tested on: MOLT-4 leukemia cells; assay: XTT cell proliferation assay, MOLT-4; conditions: read-out: IC50 (cell growth inhibition)
Experimental: as §3

Structure (SMILES) | Cyclin D1 expression change with zinc supplement [1] | Cyclin D1 gene expression, change [1] | IC50 ([2]; Homo sapiens) | KLF4 (gene fold increase) [3] | MTF-1 expression change with zinc supplement [4] | MTF-1 gene expression, change [4] | KLF2, KLF4 and KLF6 gene expression [5] | KLF4 (gene fold increase) [5] | KLF4 (gene fold increase) [6] | IC50 ([7]; Homo sapiens) | IC50 ([8]; Homo sapiens) | IC50 ([9]; Homo sapiens) | IC50 ([10]; Homo sapiens) | IC50 ([11]; Homo sapiens) | KLF4 (gene fold increase) [12] | KLF4 (gene fold increase) [13] | KLF4 (gene fold increase) [14] | IC50 ([15]; Homo sapiens) | also measured
Cc1[nH]c2ccccc2c1-c1nc2c3cccnc3c3ncccc3c2[nH]1 [Compound 3] | reversed in the presence of 25 μM ZnCl2; also recorded: reversed by addition of zinc supplement | Time-dependent decreases; also recorded: decrease in both gene (FIG. 43A) and protein (FIG. 43B) levels of Cyclin D1; also recorded: significantly decreased; also recorded: decreased expressions of MT1A, MTF-1 and Cyclin D1 | 200 nM | 5.88 fold | recovered by addition of zinc supplement; also recorded: reversed by addition of zinc supplement | Time-dependent decreases; also recorded: decrease in MTF-1 expression was observed after 8 hr treatment; also recorded: significant decrease in gene expression of MTF-1; also recorded: decreased expressions of MT1A, MTF-1 and Cyclin D1 | increased KLF4 as most significantly changed gene | 3.4 fold | 9.16 fold | 350 nM | 300 nM | 250 nM | 350 nM | 420 nM | 16.28 fold | 9.09 fold | 1.52 fold | 150 nM | 
Cc1[nH]c2ccc(F)cc2c1-c1nc2c3cccnc3c3ncccc3c2[nH]1 [Compound 7] | reversed by addition of zinc supplement | decreased expressions of MT1A, MTF-1 and Cyclin D1 | 150 nM | 6.15 fold | reversed by addition of zinc supplement | decreased expressions of MT1A, MTF-1 and Cyclin D1 | increased KLF4 as most significantly changed gene | 2.1 fold | 11.24 fold | 200 nM | 210 nM | 200 nM | 220 nM | 400 nM | 12.17 fold | 11.71 fold | 1.6 fold | 70 nM | 
CCc1cccc2c(-c3nc4c5cccnc5c5ncccc5c4[nH]3)c(C(C)(C)C)[nH]c12 [Compound 64] | reversed by addition of zinc supplement | decreased expressions of MT1A, MTF-1 and Cyclin D1 |  | 3.05 fold | reversed by addition of zinc supplement | decreased expressions of MT1A, MTF-1 and Cyclin D1 |  | 1.64 fold | 6.75 fold |  |  |  |  |  | 1.36 fold | 7.59 fold | 2.06 fold |  | IC50 [2]: 200 nM; IC50 [7]: 500 nM; IC50 [8]: 460 nM; IC50 [9]: 200 nM; IC50 [10]: 300 nM; IC50 [11]: 250 nM; IC50 [15]: 175 nM

From patent US8148392B2, “2-indolyl imidazo [4,5-d] phenanthroline derivatives and their use in the treatment of cancer” (Lorus Therapeutics Inc., priority 2005, dated 2012)
